Measured values published in the NIST ThermoML archive (doi:10.1021/je050031f).

Key:
[1] = refractive index (Na D-line) (dimensionless); xn = mol fraction of the nth substance listed; settings: 100.8 kPa, Liquid, Standard Abbe refractometry
[2] = xn = mol fraction of the nth substance listed; settings: 100.8 kPa, Liquid; for viscosity: Capillary tube (Ostwald / Ubbelohde) method

CC1CCCCC1 [methylcyclohexane] + CC(C)OC(C)C
Settings	mass density, 288.15 K [kg/m3]	mass density, 298.15 K [kg/m3]	mass density, 308.15 K [kg/m3]	refractive index, 288.15 K	refractive index, 298.15 K	refractive index, 308.15 K	viscosity, 288.15 K [mPa·s]	viscosity, 298.15 K [mPa·s]	viscosity, 308.15 K [mPa·s]
[1], x2 = 0	–	–	–	1.42578	1.42053	1.41537	–	–	–
[1], x2 = 0.0502	–	–	–	1.42321	1.41757	1.4125	–	–	–
[1], x2 = 0.1	–	–	–	1.42014	1.4146	1.40957	–	–	–
[1], x2 = 0.15	–	–	–	1.41715	1.41158	1.40663	–	–	–
[1], x2 = 0.2	–	–	–	1.41419	1.40859	1.40365	–	–	–
[1], x2 = 0.25	–	–	–	1.41129	1.40565	1.40068	–	–	–
[1], x2 = 0.3	–	–	–	1.40842	1.40277	1.39775	–	–	–
[1], x2 = 0.35	–	–	–	1.40558	1.3999	1.39484	–	–	–
[1], x2 = 0.4	–	–	–	1.40277	1.39707	1.39197	–	–	–
[1], x2 = 0.45	–	–	–	1.39999	1.39428	1.38912	–	–	–
[1], x2 = 0.5	–	–	–	1.39721	1.3915	1.38631	–	–	–
[1], x2 = 0.55	–	–	–	1.3945	1.38878	1.38356	–	–	–
[1], x2 = 0.6	–	–	–	1.3918	1.3861	1.38083	–	–	–
[1], x2 = 0.65	–	–	–	1.38914	1.38347	1.37818	–	–	–
[1], x2 = 0.7	–	–	–	1.38652	1.38082	1.37552	–	–	–
[1], x2 = 0.75	–	–	–	1.38392	1.37823	1.37286	–	–	–
[1], x2 = 0.8	–	–	–	1.38136	1.37565	1.37025	–	–	–
[1], x2 = 0.85	–	–	–	1.37883	1.37309	1.36765	–	–	–
[1], x2 = 0.9	–	–	–	1.37629	1.37053	1.36503	–	–	–
[1], x2 = 0.95	–	–	–	1.37377	1.36799	1.36243	–	–	–
[2], x2 = 0	773.4	765	756.3	–	–	–	0.784	0.685	0.6
[2], x2 = 0.0502	771.3	762.5	753.8	–	–	–	0.744	0.653	0.575
[2], x2 = 0.1	768.9	760.1	751.3	–	–	–	0.697	0.612	0.542
[2], x2 = 0.15	766.6	757.7	748.8	–	–	–	0.66	0.579	0.514
[2], x2 = 0.2	764.3	755.3	746.3	–	–	–	0.627	0.551	0.489
[2], x2 = 0.25	761.9	752.9	743.8	–	–	–	0.595	0.524	0.467
[2], x2 = 0.3	759.6	750.5	741.3	–	–	–	0.568	0.502	0.448
[2], x2 = 0.35	757.4	748.1	738.9	–	–	–	0.543	0.481	0.43
[2], x2 = 0.4	755.1	745.8	736.4	–	–	–	0.522	0.464	0.415
[2], x2 = 0.45	752.8	743.4	734	–	–	–	0.503	0.447	0.401
[2], x2 = 0.5	750.6	741.1	731.6	–	–	–	0.484	0.431	0.387
[2], x2 = 0.55	748.4	738.8	729.2	–	–	–	0.466	0.415	0.373
[2], x2 = 0.6	746.2	736.5	726.8	–	–	–	0.447	0.399	0.36
[2], x2 = 0.65	743.9	734.2	724.4	–	–	–	0.431	0.385	0.347
[2], x2 = 0.7	741.7	731.9	722	–	–	–	0.415	0.372	0.335
[2], x2 = 0.75	739.6	729.6	719.6	–	–	–	0.403	0.361	0.325
[2], x2 = 0.8	737.4	727.3	717.3	–	–	–	0.389	0.349	0.316
[2], x2 = 0.85	735.3	725.1	714.9	–	–	–	0.379	0.341	0.308
[2], x2 = 0.9	733.1	722.9	712.6	–	–	–	0.368	0.331	0.299
[2], x2 = 0.95	731	720.6	710.3	–	–	–	0.358	0.321	0.291
